Reference: US7846434B2, “Materials and methods for improved immunoglycoproteins” (Trubion Pharmaceuticals, Inc., priority 2006, dated 2010)
Several values for one entry are separate records, joined by “and”; a condition that tells them apart may be missing. Equal entries are not always repeated.

How the values were obtained:
CD37 = test: Binding of TRU-016 to CD37 expressing Daudi cells; set-up: species or system human
Experimental: The cells are then incubated with a FITC-conjugated goat anti-human IgG Fc specific antibody (Caltag H10501). This antibody will bind to the Fc region of the human IgG chain of TRU-016 bound to the cells. The antibody is diluted 1:50 in FACS buffer and 100 μL is added to each well. The plate is incubated at 4° C. in the dark for 45 minutes. Any unbound FITC-labeled antibody is removed by adding 100 μL of FACS buffer to each well, centrifuging at 250×g for 3 minutes at 15° C. followed by removal of supernatant. This is followed by a second wash with 200 μL/well FACS buffer. The cells are resusupended with 200 μL/well 2% paraformaldehyde and stored at 4° C. overnight. Each sample's bound fluorescence is measured on a BD FACSCalibur flow cytometry system and analyzed using Cell Quest Pro software (Becton Dickinson, ver 5.2). The GeoMean fluorescence intensity for each sample is plotted relative to the TRU-016 concentration. A dose response curve is generated and fit to a 4-parameter logistic (4-PL) curve using the SoftMax Pro software (Molecular Devices, ver 5.0.1). Titrations of TRU-016 are utilized to create a dose response curve of the untreated control and CS treated samples for comparison.

[1] = test system: CHO-K1 cells transfected with TRU-016; test: Effect of castanospermine on CHO-K1 TRU-016 production, shake flasks; format: cell-based, Chinese hamster; conditions: for Average TRU-016 Produced (μg/mL) ± SD: duplicate flasks; for Viability at Harvest (%): harvest day 10, listed as CS
Experimental: Prior to initiation of the experiments, CHO-K1 cells transfected with TRU-016 (CAS029f053) were grown in vented shake flasks in CD-CHO chemically-defined media (GIBCO-Invitrogen) supplemented with 25 uM methionine sulfoximine (MSX) at 37° C. and 5% carbon dioxide in a humidified incubator. Shaker speed was set at 125 RPM. A 400 mM stock concentration of castanospermine (Alexis Biochemicals) was prepared by dilution of the CS in sterile, distilled/deionized water (MediaTech) followed by filtration through a 13 mm Acrodisc® with a 0.2 μm HT Tuffryn membrane (Pall Corporation). Stock solution was aliquoted into sterile, O-ringed, 0.5 mL microcentrifuge tubes (Fisherbrand, Fisher Scientific) and frozen at −20° C. Approximately 1 hour prior to initiation of experiments, needed aliquots were thawed at room temperature and the contents of each vial mixed well by vortexing.
For the experiment, cells in log phase growth were seeded in the above medium into a volume of 60 mL in 250 mL shaker flasks at a density of 220,000 cells/mL and CS added at the concentration to be tested. Final CS concentrations of 800 μM, 400 μM, 200 μM, 100 μM, 50 μM, 25 μM and 0 μM were each tested in duplicate flasks. All shake flasks were incubated on a shaker platform set at 125 RPM at 37° C. and 5% carbon dioxide in a humidified incubator. Cultures were monitored at least every other day for viable cell density and overall cell viability.
Cultures were harvested on day 10 when overall cell viability was 49-62%. Cells and cellular debris were removed by centrifugation in a Sorvall Super T21 at 3000 rpm for 20 minutes after which the supernatant was sterile filtered through a Millipore Steriflip unit with a 0.22 μm Millipore Express Plus membrane and stored at 4° C. until purified.

O[C@H]1[C@H](O)[C@@H](O)CN2CC[C@H](O)[C@H]12 [castanospermine]
binding of TRU-016 to CD37 expressing cells (dose response curves) (CD37; CHO-K1 produced glycovariants vs control): did not alter | binding of TRU-016 to CD37 expressing cells (dose response curves) (CD37; DG44 CHO produced, all CS treated samples vs untreated): did not alter | CS concentration at which the maximal suppressive effect on TRU-016 production was reached ([1]; CHO-K1): 200 µM | Average ICA (10^6 cells * days/mL) ± SD ([1]; CS 25 μM): 40.8 ± 0.4 10^6 cells * days/mL | Average Specific Productivity (pg/cell/day) ± SD ([1]; CS 25 μM): 10.29 ± 0.18 pg/cell/day | Average TRU-016 Produced as a % of Control ± SD ([1]; CS 25 μM): 96.7 ± 2.6% | Average TRU-016 Produced (μg/mL) ± SD ([1]; CS 25 μM): 419.36 ± 11.1 µg/mL | Viability at Harvest (%) ([1]; CS 25 μM): 57.7% and 53.0% | Average ICA (10^6 cells * days/mL) ± SD ([1]; CS 50 μM): 41.6 ± 0.9 10^6 cells * days/mL | Average Specific Productivity (pg/cell/day) ± SD ([1]; CS 50 μM): 10.18 ± 0.45 pg/cell/day | Average TRU-016 Produced as a % of Control ± SD ([1]; CS 50 μM): 97.5 ± 6.4% | Average TRU-016 Produced (μg/mL) ± SD ([1]; CS 50 μM): 422.84 ± 27.8 µg/mL | Viability at Harvest (%) ([1]; CS 50 μM): 61.3% | Average ICA (10^6 cells * days/mL) ± SD ([1]; CS 100 μM): 39.0 ± 0.4 10^6 cells * days/mL | Average Specific Productivity (pg/cell/day) ± SD ([1]; CS 100 μM): 10.48 ± 0.07 pg/cell/day | Average TRU-016 Produced as a % of Control ± SD ([1]; CS 100 μM): 94.3 ± 1.6% | Average TRU-016 Produced (μg/mL) ± SD ([1]; CS 100 μM): 408.60 ± 6.9 µg/mL | Viability at Harvest (%) ([1]; CS 100 μM): 61.2% and 55.1% | Average ICA (10^6 cells * days/mL) ± SD ([1]; CS 200 μM): 40.1 ± 2.3 10^6 cells * days/mL | Average Specific Productivity (pg/cell/day) ± SD ([1]; CS 200 μM): 10.04 ± 0.69 pg/cell/day | Average TRU-016 Produced as a % of Control ± SD ([1]; CS 200 μM): 92.7 ± 1.2% | Average TRU-016 Produced (μg/mL) ± SD ([1]; CS 200 μM): 401.93 ± 5.0 µg/mL | Viability at Harvest (%) ([1]; CS 200 μM): 61.8% and 56.4% | Average ICA (10^6 cells * days/mL) ± SD ([1]; CS 400 μM): 37.6 ± 0.3 10^6 cells * days/mL | Average Specific Productivity (pg/cell/day) ± SD ([1]; CS 400 μM): 10.68 ± 0.28 pg/cell/day | Average TRU-016 Produced as a % of Control ± SD ([1]; CS 400 μM): 92.6 ± 3.1% | Average TRU-016 Produced (μg/mL) ± SD ([1]; CS 400 μM): 401.22 ± 13.3 µg/mL | Viability at Harvest (%) ([1]; CS 400 μM): 56.1% and 62.4% | Average ICA (10^6 cells * days/mL) ± SD ([1]; CS 800 μM): 37.6 ± 1.0 10^6 cells * days/mL | Average Specific Productivity (pg/cell/day) ± SD ([1]; CS 800 μM): 10.68 ± 0.40 pg/cell/day | Average TRU-016 Produced as a % of Control ± SD ([1]; CS 800 μM): 92.5 ± 1.0% | Average TRU-016 Produced (μg/mL) ± SD ([1]; CS 800 μM): 401.14 ± 4.1 µg/mL | Viability at Harvest (%) ([1]; CS 800 μM): 58.1% and 59.7% | average specific productivity of the cells ([1]; CS 25-800 μM): no significant effect | overall cell viability or growth (integral cell area) ([1]; CS 25-800 μM): did not appear to significantly affect | decrease in production of TRU-016 relative to control ([1]; CS 25-800 μM, even at the highest concentration of 800 μM): ≤ 7.5%
